Earlier results in patent US7250416B2, “Azacytosine analogs and derivatives” (SuperGen, Inc., priority 2005, dated 2007).
Like-named read-outs stand apart in the source and are kept apart here.

Columns and labels:
[1] = for steady-state plasma concentration: estimated
cytidine deaminase = target: T1, cytidine deaminase (Homo sapiens, UniProt P32320); conditions: by cytidine deaminase at equal concentrations
T1 construct: the enzyme purified from human liver; from tissue; host or cells: human liver
T1 sequence (P32320 whole entry): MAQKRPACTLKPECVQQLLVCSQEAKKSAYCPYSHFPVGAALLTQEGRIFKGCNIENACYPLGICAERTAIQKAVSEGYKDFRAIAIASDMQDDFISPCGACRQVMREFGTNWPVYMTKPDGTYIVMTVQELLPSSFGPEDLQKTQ

## Nc1ncn([C@H]2C[C@H](O)[C@@H](CO)O2)c(=O)n1 [decitabine, 5-aza-2′-deoxycytidine]
[1]; 6-hour infusion of 100 mg/m^2
  steady-state plasma concentration: 0.31 to 0.39 µg/mL
[1]; 600-mg/m^2 infusion
  range of concentrations during infusion: 0.41 to 16 µg/mL
[1]; humans
  half-life after discontinuing the infusion: 12 to 20 min
  total urinary excretion, % of the administered dose: less than 1%
  volume of distribution: about 4.6 L/kg
[1]; humans, measured by bioassay
  terminal half-life: 10 to 35 min
[1]; infusion rate of 1 mg/kg/h
  steady-state plasma concentration: 0.2 to 0.5 µg/mL
[1]; infusion times of 40–60 hours, infusion rate 1 mg/kg/h
  plasma concentration: 430 to 760 ng/mL
[1]; man, end of a 36-hour intravenous infusion
  penetration into the cerebrospinal fluid, % of the plasma concentration: 14–21%
[1]; patients, 100 mg/m^2 as a 3-hour infusion
  plasma concentration: about 0.4 μg/ml
Alkaline medium
  time of hydrolysis to the amidino-urea derivative (1h): within a few minutes
Aqueous media, hydrolytic degradation
  stability in aqueous media: unstable
Reconstituted aqueous solution stored in the refrigerator for less than 7 hr
  maximum infusion time of reconstituted solution: ≤ 3 h

## Nc1ccn([C@H]2C[C@H](O)[C@@H](CO)O2)c(=O)n1 [deoxycytidine, 2′-deoxycytidine]
Cytidine deaminase
  rate of deamination relative to that of decitabine: about 6 fold
